From US6987114B1, “Antiviral pyrimidinedione derivatives and process for the preparation thereof” (Samjin Pharmaceutical Co., Ltd, priority 1999, dated 2006)
Converted amounts (≈) assume the structure as drawn. Read-outs that look alike come from different tables or passages of the source.

Legend:
mock-infected MT-4 cells = assay: Cytotoxicity based on viability of mock-infected host cells (MTT method); type: cell-based
Protocol: (§1) MT-4 cells were suspended in culture media at 2.5×10^5 cells/ml and infected with 1000 CCID50 (50% cell culture infective dose) of HIV. Immediately after virus infection, 100 μl of cell suspension was brought into each well of a flat-bottomed microtitray containing various concentrations of the test compounds. After 4 or 5 days incubation at 37° C., efficacy of the compounds was determined by the MTT method. Cytotoxicity of the compounds was assessed in parallel with their antiviral activity, based on viability of mock-infected host cells as determined by the MTT method.

HIV = assay: microbe, parasite or virus in culture; type: cell-based
Protocol: Anti-HIV activity tests in vitro of the compounds according to the present invention were performed as described in J. Med. Chem, 34, 357, 1991. Inhibition by the compounds of virus-induced cytotoxic effect in MT-4 cells was measured as follows.
as §1

[1] = mock-infected MT-4 cells, MTT method, 4 or 5 days at 37° C.
[2] = Human immunodeficiency virus 1, MT4, HIV-infected MT-4 cells, MTT method, 4 or 5 days at 37° C., read-out: ED50 (the source's name)
[3] = Human immunodeficiency virus 1, MT4, read-out: ED50
[4] = HIV-infected MT-4 cells, MTT method, 4 or 5 days at 37° C.

Molecule	melting point [°C]	CD50 (mock-infected MT-4 cells; [1]) [µg/mL]	EC50 (HIV; [2]) [µg/mL]	EC50 (HIV; [3]) [µg/mL]	ED50 (HIV; [4]) [µg/mL]	CD50 (mock-infected MT-4 cells) [µg/mL]
CCc1c(Sc2cc(C)cc(C)c2)n(Cc2cc(C(F)(F)F)cc(C(F)(F)F)c2)c(=O)[nH]c1=O [Example 61, 1-[3,5-Bis(trifluoromethyl)benzyl]-5-ethyl-6-(3,5-dimethyl-phenyl)thio-2,4-pyrimidinedione]	212 to 213	>100.00	> 100			
CCc1c(C(=O)c2cc(C)cc(C)c2)n(Cc2ccccc2C#N)c(=O)[nH]c1=O [Example 41, 1-(2-Cyanobenzyl)-5-ethyl-6-(3,5-dimethylbenzoyl)-2,4-pyrimidinedione]	257 to 259	2.56	0.003 (≈ 0.00774 µM)			
CCc1c(C(=O)c2cc(C)cc(C)c2)n(Cc2cc(Cl)cc(Cl)c2)c(=O)[nH]c1=O [Example 83, 1-(3,5-Dichlorobenzyl)-5-ethyl-6-(3,5-dimethylbenzoyl)-2,4-pyrimidinedione]	223 to 225	3.10		0.021 (≈ 0.0487 µM)		
CCc1c(Sc2cc(C)cc(C)c2)n(Cc2c3ccccc3cc3ccccc23)c(=O)[nH]c1=O [Example 97, 1-(Anthracen-9-ylmethyl)-5-ethyl-6-(3,5-dimethylphenyl)thio-2,4-pyrimidinedione]	219 to 220	0.59		> 0.59		
CCC(=O)Cn1c(C(=O)c2cc(C)cc(C)c2)c(CC)c(=O)[nH]c1=O [Example 163, 1-(2-Butanon-1-yl)-5-ethyl-6-(3,5-dimethylbenzoyl) δ 2,4-pyrimidinedione]		9.31			0.0034 (≈ 0.00993 µM)	
1-(Phenacyl)-5-ethyl-6-(3,5-dimethylphenoxy)-2,415 pyrimidinedione [Example 165]					>58.11	58.11
CCc1c(C(=O)c2cc(C)cc(C)c2)n(CC2CO2)c(=O)[nH]c1=O (stereo not drawn) [Example 139, 1-(2,3-Epoxypropyl)-5-ethyl-6-(3,5-dimethylbenzoyl)-2,4-pyrimidinedione]		>100.00		0.34 (≈ 1.04 µM)		
Cc1cc(C)cc(Oc2c(C(C)C)c(=O)[nH]c(=O)n2Cc2ccccc2)c1 [Example 22, 1-Benzyl-5-isopropyl-6-(3,5-dimethylphenoxy)-2,4-pyrimidinedione]		25.48	0.015 (≈ 0.0412 µM)			
Cc1cc(C)cc(C(=O)c2c(C(C)C)c(=O)[nH]c(=O)n2Cc2ccccn2)c1 [Example 114, 1-(Pyridin-2-2-ylmethyl)-5-isopropyl-6-(3,5-dimethyl-benzoyl)-2,4-pyrimidinedione]		24.60			0.0032 (≈ 0.00848 µM)	
Cc1cc(C)cc(Oc2c(C(C)C)c(=O)[nH]c(=O)n2CC2CO2)c1 (stereo not drawn) [Example 138, 1-(2,3-Epoxypropyl)-5-isopropyl-6-(3,5-dimethylphenoxy)-2,4-pyrimidinedione]		39.60		0.34 (≈ 1.03 µM)		
Cc1cc(C)cc(Sc2c(C(C)C)c(=O)[nH]c(=O)n2Cc2ccccc2)c1 [Example 20, 1-Benzyl-5-isopropyl-6-(3,5-dimethylphenyl)thio-2,4-pyrimidinedione]		11.30	0.012 (≈ 0.0315 µM)			
Cc1cc(C)cc(Oc2c(C(C)C)c(=O)[nH]c(=O)n2CC2CCC2)c1 [Example 10, 1-(Cyclobutyl)methyl-5-isopropyl-6-(3,5-dimethylphenoxy)-2,4-pyrimidinedione]		7.8	0.0147 (≈ 0.0429 µM)			
1-(2-Naphthalenemethyl)-5-isopropyl-6-(3,5-dimethyl-benzoyl)-2,4-pyrimidinedione [Example 96]		9.64			0.014	
CCc1c(Oc2cc(C)cc(C)c2)n(CC2CC2)c(=O)[nH]c1=O [Example 3, 1-(Cyclopropyl)methyl-5-ethyl-6-(3,5-dimethylphenoxy)-2,4-pyrimidinedione]		>100.00	0.011 (≈ 0.035 µM)			
1-(Benzoxazol-2-ylmethyl)-5-isopropyl-6-(3,5-dimethyl-benzoyl-2,4-pyrimidinedione [Example 150]		7.09			0.0031	
CCc1c(Oc2cc(C)cc(C)c2)n(CC2CCCCC2)c(=O)[nH]c1=O [Example 15, 1-(Cyclohexyl)methyl-5-ethyl-6-(3,5-dimethylphenoxy)-2,4-pyrimidinedione]		9.17		0.069 (≈ 0.194 µM)		
1-(Phenacyl)-5-isopropyl-6-(3,5-dimethylbenzoyl)-2,430 pyrimidinedione [Example 168]					0.0174	5.48
CCc1c(Sc2cc(C)cc(C)c2)n(Cc2ccccc2)c(=O)[nH]c1=O [Example 19, 1-Benzyl-5-ethyl-6-(3,5-dimethylphenyl)thio-2,4-pyrimidine-dione]		12.59	0.015 (≈ 0.0409 µM)			
CCc1c(C(=O)c2cc(C)cc(C)c2)n(Cc2cccc(Br)n2)c(=O)[nH]c1=O [Example 129, 1-(2-Bromopyridib-6-ylmethyl)-5-ethyl-6-(3,5-dimethyl-benzoyl)-2,4-pyrimidinedione]					0.010 (≈ 0.0226 µM)	7.44

Molecule	melting point [°C]	CD50 (mock-infected MT-4 cells; [1]) [µg/mL]	EC50 (HIV; [2]) [µg/mL]	EC50 (HIV; [3]) [µg/mL]	ED50 (HIV; [4]) [µg/mL]	CD50 (mock-infected MT-4 cells) [µg/mL]
1-(2-Naphthalenemethyl)-5-isopropyl-6-(3,5-dimethyl-phenyl)thio-2,4-pyrimidinedione [Example 92]		8.93			0.013	
Cc1cc(C)cc(Sc2c(C(C)C)c(=O)[nH]c(=O)n2CC2CCC2)c1 [Example 8, 1-(Cyclobutyl)methyl-5-isopropyl-6-(3,5-dimethylphenyl)thio-2,4-pyrimidinedione]		5.9	0.013 (≈ 0.0363 µM)			
1-(2-Naphthalenemethyl)-5-ethyl-6-(3,5-dimethylbenzoyl)-2,4-pyrimidinedione [Example 95]		16.50			0.013	
CCc1c(Oc2cc(C)cc(C)c2)n(CC2CO2)c(=O)[nH]c1=O (stereo not drawn) [Example 137, 1-(2,3-Epoxypropyl)-5-ethyl-6-(3,5-dimethylphenoxy)-2,4-pyrimidinedione]		40.50		1.25 (≈ 3.95 µM)		
CCc1c(Oc2cc(C)cc(C)c2)n(CC2CCC2)c(=O)[nH]c1=O [Example 9, 1-(Cyclobutyl)methyl-5-ethyl-6-(3,5-dimethylphenoxy)-2,4-pyrimidinedione]		>100.00	0.0756 (≈ 0.23 µM)			
Cc1cc(C)cc(Sc2c(C(C)C)c(=O)[nH]c(=O)n2CC2CC2)c1 [Example 2, 1-(Cyclopropyl)methyl-5-isopropyl-6-(3,5-dimethylphenyl)thio-2,4-pyrimidinedione]		12.43	< 0.0002			
1-(Phenacyl)-5-isopropyl-6-(3,5-dimethylphenoxy)-2,420 pyrimidinedione [Example 166]					0.7562	>100.00
1-(2-Naphthalenemethyl)-5-ethyl-6-(3,5-dimethylphenyl)thio-2,4-pyrimidinedione [Example 91]		1.27			0.004	
Cc1cn([C@H]2C[C@H](N=[N+]=[N-])[C@@H](CO)O2)c(=O)[nH]c1=O [AZT]		0.70			0.0015 (≈ 0.00561 µM)	
Cc1cc(C)cc(Oc2c(C(C)C)c(=O)[nH]c(=O)n2CC2CCCCC2)c1 [Example 16, 1-(Cyclohexyl)methyl-5-isopropyl-6-(3,5-dimethylphenoxy)-2,4-pyrimidinedione]		8.30		0.065 (≈ 0.175 µM)		
1-(2-Naphthalenemethyl)-5-ethyl-6-(3,5-dimethylphenoxy)-2,4-pyrimidinedione [Example 93]		83.22			0.013	
Cc1cc(C)cc(C(=O)c2c(C(C)C)c(=O)[nH]c(=O)n2CC2CO2)c1 (stereo not drawn) [Example 140, 1-(2,3-Epoxypropyl)-5-isopropyl-6-(3,5-dimethylbenzoyl)-2,4-pyrimidinedione]		41.90		0.094 (≈ 0.275 µM)		
CCc1c(Sc2cc(C)cc(C)c2)n(Cc2occc2C(=O)OC)c(=O)[nH]c1=O [Example 151, 1-(3-Methoxycarbonyl-2-furanylmethyl)-5-ethyl-6-(3,55 dimethylphenyl)thio-2,4-pyrimidinedione]					0.015 (≈ 0.0362 µM)	8.67
CCc1c(Sc2cc(C)cc(C)c2)n(CC2CCCCC2)c(=O)[nH]c1=O [Example 13, 1-(Cyclohexyl)methyl-5-ethyl-6-(3,5-dimethylphenyl)thio-2,4-pyrimidinedione]		11.10		0.27 (≈ 0.725 µM)		
CCc1c(Sc2cc(C)cc(C)c2)n(CC2CCC2)c(=O)[nH]c1=O [Example 7, 1-(Cyclobutyl)methyl-5-ethyl-6-(3,5-dimethylphenyl)thio-2,4-pyrimidinedione]		11.73	0.028 (≈ 0.0813 µM)			
CCc1c(Oc2cc(C)cc(C)c2)n(Cc2ccccc2)c(=O)[nH]c1=O [Example 21, 1-Benzyl-5-ethyl-6-(3,5-dimethylphenoxy)-2,4-pyrimidine-dione]		16.58	0.036 (≈ 0.103 µM)			
1-(Phenacyl)-5-ethyl-6-(3,5-dimethylbenzoyl)-2,425 pyrimidinedione [Example 167]					0.0569	43.31
Cc1cc(C)cc(Sc2c(C(C)C)c(=O)[nH]c(=O)n2CC2CCCCC2)c1 [Example 14, 1-(Cyclohexyl)methyl-5-isopropyl-6-(3,5-dimethylphenyl)thio-2,4-pyrimidinedione]		6.40		0.061 (≈ 0.158 µM)		
